Assay results: patent US11865109B2 (NOVARTIS AG, priority 2019, dated 2024)

Legend:
Assay type in all cases: in vivo, human
[1] = ADME study: PK of total radioactivity in blood and plasma (LSC); parameters: AUC (last), blood radioactivity / AUC (last), plasma radioactivity / AUC (inf), blood radioactivity: concentration or dose not given beside the values
Procedure: (§1) Six healthy male subjects of aged 18 to 55 years (inclusive) were included in this study.
The study consisted of a 28-day screening period (including baseline period of 1 day) and 12 days of treatment period. The study design is depicted in FIG. 10.
(§2) All treatment administrations (Day 1 to Day 12) occurred approximately 30 minutes following consumption of a standardized meal. Treatments were administered with ˜240 mL water as 4×100 mg hard gelatin capsules. The radioactive release criteria was met and all the subjects were released from the study site on Day 14 afternoon.
(§3) The PK blood sample collection schedule was appropriate to characterize the PK of Compound 1 and any circulating major metabolites. The urine and feces collection schedule was set up adequately to ensure complete excretion of radioactivity. Due to the non-linear PK of Compound 1, the study was conducted at steady state.
(§4) Subjects who met the eligibility criteria were admitted to the study site approximately 24 hours prior to dosing for baseline evaluations. […] Safety assessments included physical examinations, electrocardiograms (ECGs), vital signs, standard clinical laboratory evaluations (hematology, blood chemistry, and urinalysis), AE and serious adverse event (SAE) monitoring.
Blood, plasma, urine, and feces samples were obtained and evaluated in all subjects. […] If the co-efficient of variation of replicate radioactivity measurements was >20%, the sample was re-homogenized and/or reanalyzed.
Single-dose blood and plasma PK parameters (Cmax, Tmax, AUClast and AUCinf), for total radioactivity were derived from plasma and blood concentration versus sampling time data. PK parameters were determined using non-compartmental method(s) with Phoenix WinNonLin (Version 6.4) for total radioactivity.

[2] = ADME study: plasma PK of Compound 1 at steady state (LC-MS/MS)
Procedure: as §1
All treatment administrations (Day 1 to Day 12) occurred approximately 30 minutes following consumption of a standardized meal. Treatments were administered with ˜240 mL water as 4×100 mg hard gelatin capsules.
(§5) Pharmacokinetic samples were obtained and evaluated in all subjects.
The PK parameters were based on the actual recorded sampling times and non-compartmental method(s) with Phoenix WinNonLin (Version 6.4). The terminal rate constant (λz) was determined from automated (WinNonlin algorithm) linear regression of at least the last three points with non-zero concentrations in the terminal phase of the log-transformed concentration-time profile.

[3] = ADME study: safety and tolerability; details: multiple-dose oral 400 mg Compound 1 and single oral 400 mg [14C]Compound 1, healthy subjects
Procedure: as §1, §2, §4

[4] = ADME study: excretion/mass balance of radioactivity in urine and feces
Procedure: as §1, §2, §3
[14C]-radioactivity data, which was based on LSC analyses, for excreta was used to calculate percentage of dose excreted via urine or feces as well as a total percent of dose recovered.
(§6) Profiles of radioactive metabolites in urine and feces pools representing more than 90% of total radioactivity in the collected excreta of individual subjects were specified as dose proportion (%) per metabolite.

[5] = Relative bioavailability and food effect study, single oral dose of 450 mg, plasma PK of Compound 1
Text: as §5

[6] = ADME study: metabolite pattern analysis in plasma
Procedure: as §1, §2, §6
Pharmacokinetic samples were obtained and evaluated in all subjects. Compound 1 was determined in plasma by a validated liquid chromatography with tandem mass spectrometry (LC-MS/MS) method using electrospray ionization. A non-validated method was used to analyze metabolites of Compound 1.

[7] = blood, total radioactivity, mean of N = 6
[8] = single oral 400 mg [14C]Compound 1 at steady state
[9] = male, human, oral, 400 mg, Day 5, 0-12 hours, steady state, mean of N = 6
[10] = time period 0-216 h, mean, radioactivity after [14C]Compound 1
[11] = plasma time pools of N = 6 subjects, metabolite pattern analysis

With `COc1nc(C(=O)NC[C@](C)(O)C(F)(F)F)c(N)cc1C(F)(F)F` [Compound 1, (S)-3-amino-6-methoxy-N-(3,3,3-trifluoro-2-hydroxy-2-methylpropyl)-5-(trifluoromethyl)picolinamide] the “AUC (inf), blood radioactivity” value ([1]; blood, total radioactivity, AUCinf = AUClast + AUCt-inf, mean of N = 6) was 27900 ng-eq·h/mL, the “Tlast (range), blood radioactivity” value ([1]; blood, total radioactivity, N = 6) was 24 to 48 h and the “AUC (last), blood radioactivity” value ([1]; blood, total radioactivity, linear trapezoidal rule, mean of N = 6) was 24700 ng-eq·h/mL. The “AUC % Extrap, blood radioactivity” value [1, 7] was 12.2 % of AUCinf, the “AUC (% of 14C-AUCinf plasma), blood radioactivity” value [1, 7] was 57.9 % of 14C-AUCinf plasma and the “Cmax, blood radioactivity” value ([1]; blood, total radioactivity, oral 400 mg [14C]Compound 1, mean of N = 6) was 2670 ng-eq/mL. For the same compound, the “Tlast (range), plasma radioactivity” value ([1]; plasma, total radioactivity, N = 6) was 48 to 96 h, the “AUC (last), plasma radioactivity” value ([1]; plasma, total radioactivity, linear trapezoidal rule, mean of N = 6) was 45600 ng-eq·h/mL and the “AUC % Extrap, plasma radioactivity” value ([1]; plasma, total radioactivity, mean of N = 6) was 5.74 % of AUCinf. The “Cmax, plasma radioactivity” value ([1]; plasma, total radioactivity, oral 400 mg [14C]Compound 1, mean of N = 6) was 4280 ng-eq/mL, the “Fraction of total radioactivity in blood confined to the plasma compartment (Fp)” value [1, 8] was 93.3±3.35% and the “Tlast (range), plasma Compound 1” value ([2]; Day 5, 0-12 hours) was 12 h. For the same compound, the “AUC (% of 14C-AUCinf plasma), plasma Compound 1” value ([2]; Day 5, 0-12 hours, mean of N = 6) was 16.6 % of 14C-AUCinf plasma, the CL/F ([2]; male, human, oral, 400 mg b.i.d., steady state, CV % 45.1%, read-out: Steady state plasma clearance (CLss/F), mean (converted)) was 947 mL/min and the Vd/F ([2]; male, human, oral, 400 mg b.i.d., steady state, CV % 48.1%, read-out: Apparent volume of distribution (Vz/F), mean) was 335 L. For the same compound, the Tmax ([2]; male, human, oral, 400 mg b.i.d., steady state, Day 5, range 1.0 hour-4.0 hours) was 4 h, the AUC(0-t) [2, 9] was 8170 ng·h/mL and the Cmax [2, 9] was 1680 ng/mL. For the same compound, the Safety and tolerability [3] was “safe and well tolerated”, the “14C-Excretion, Feces” value [4, 10] was 5.2 % of dose and the “14C-Excretion, Urine” value [4, 10] was 92.3 % of dose. For the same compound, the “14C-Excretion, Total” value ([4]; time period 0-216 h, urine plus feces, mean, radioactivity after [14C]Compound 1) was 97.6 % of dose, the “Compound 1 detected in urine” value ([4]; within 0-96 hours) was 3.35 % of the dose and the half-life ([5]; both sexes, human, plasma, single oral 450 mg, all fasted treatments) was ~16 h. For the same compound, the Food effect ([5]; single 450 mg dose, high-fat meal vs fasted) was “positive food effect”, the AUC(0-inf) ([6]; male, human, oral, 400 mg, plasma time pools of N = 6 subjects, AUCinf = AUClast + AUCt-inf) was 22.7 µM·h and the AUC(0-t) ([6]; male, human, oral, 400 mg, plasma time pools of N = 6 subjects, metabolite pattern analysis, linear trapezoidal method, read-out: AUC0-48 h in plasma) was 22.1 µM·h. The half-life ([6]; male, human, oral, 400 mg, plasma time pools of N = 6 subjects, metabolite pattern analysis, read-out: T½ in plasma (converted)) was 11.2 h, the “Proportion of the plasma 14C-AUC0-48 h” value ([6]; metabolite pattern analysis, oral 400 mg [14C]Compound 1 at steady state) was 18.5% and the Extent of metabolism ([6]; oral 400 mg [14C]Compound 1 at steady state, humans) was “extensively metabolized”. For the same compound, the “AUC0-48 h, percent of total radiolabeled components AUC0-48 h” value [6, 11] was 18.5% and the “AUCinf, percent of total radiolabeled components AUCinf” value [6, 11] was 17.5%.
With `COc1nc(C(=O)NC[C@](C)(O)C(F)(F)F)c(N)cc1C(F)(F)F` [[14C]Compound 1] the “Time post-dose up to which radioactivity was detected in blood” value [1, 8] was “up to 48 hours”, the “Time post-dose up to which radioactivity was detected in plasma” value [1, 8] was ≤ 96 h and the “Radioactivity in samples collected after 96 hours post-dose” value ([4]; after 96 hours post-dose of [14C]Compound 1) was “less than 3 % of the dose”. The “Excretion of radioactivity, mean” value ([4]; after 9 days, range 93.4%-99.1%) was 97.6%, the “Extent of oral absorption” value ([4]; oral 400 mg [14C]Compound 1 at steady state, N=6, range 89.7%-97.40%) was 93.4% and the “Renal excretion of radioactivity (mainly in the form of metabolites)” value [4, 8] was 92.3±4.2 % of the dose. The “Radioactive dose recovered in feces and urine” value ([4]; within 96 hours) was > 95 % of dose.
